Assay in all cases: NCI tumour cell line growth inhibition, 48 h
Test [1] relates to CAKI-1.
Test [2] deals with HCC 2998.
Test [3] relates to HCT-15.
In test [4] the test system is HOP-62.
In test [5] the test system is HOP-92.
For test [6], the system named is Hs-578T.
Test [7] deals with IGROV-1.
For test [8], the system named is MDA-MB-435.
Test [9] deals with NCI-H23.
The subject of test [10] is NCI-H522.
In test [11] the test system is OVCAR-4.
Test [12] deals with OVCAR-5.
The test system of test [13] is SF-295.
Test [14] deals with SK-MEL-28.
In test [15] the test system is T47D.
For test [16], the system named is TK-10.
Test [17] has as its system U-251.
Test [18] concerns UACC-257.
Test [19] deals with UO-31.
Test [20] deals with HL-60.

Molecules are shown by their SMILES.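 A five-concentration, 48-hour dose response in 96-well plates underlies each endpoint, interpolated linearly between surrounding concentrations. GI50: concentration for 50% inhibition of growth.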 Activity calls are given as the source filed them. Rule as the data show it: active = GI50 up to about 1.1 µM and inactive = higher.

`CC(=O)OC/C=C/[C@H](O[Si](C)(C)C(C)(C)C)[C@@H](O)/C=C/COC(C)=O`: the GI50 in test [1] was > 100 µM (inactive); in [2], > 100 µM (inactive); in test [3], > 100 µM; in test [4] it was > 100 µM (inactive); in test [5] it was > 100 µM (inactive); in test [6], > 100 µM (inactive). Also, the GI50 in [7], in test [8], in test [9], in [10], in [11] and in test [12] was > 100 µM (inactive) each time. The GI50 in test [13], in [14], in test [15], in test [16], in test [17] and in test [18] was > 100 µM (inactive) each time. Also, in [19], the GI50 was > 100 µM (inactive).
On to `N#CSC1CCCCNC1=O` (configuration not stated), for which the GI50 was 11.8 µM (inactive) in test [1]; 16.4 µM (inactive) in [2]; 11.8 µM in test [3]; 23.9 µM (inactive) in test [20]; 20.6 µM (inactive) in test [4]; 2.78 µM (inactive) in test [5]. For the same compound, the GI50 in test [6] was 16.1 µM (inactive); in test [8], 13.9 µM (inactive); in test [9], 7.62 µM (inactive); in test [10], 8.09 µM (inactive); in test [12], 2 µM (inactive); in test [13], 14.8 µM (inactive). Also, the GI50 in [14] was 13.4 µM (inactive); in test [15] it was 13 µM (inactive); in test [16], 16.1 µM (inactive); in test [17] it was 11.2 µM (inactive); in test [18], 17.1 µM (inactive); in test [19] it was 15.1 µM (inactive).
For the compound `CC1=CC(=O)/C(=C/N2CCNC2=S)C(=O)O1`, the GI50 in [1] is > 100 µM (inactive); in test [2] it was > 100 µM (inactive); in [3], > 100 µM; in test [20], > 100 µM (inactive); in test [4] it was > 100 µM (inactive); in [5], > 100 µM (inactive). Also, the GI50 in test [6], in test [7], in test [8], in [9], in [10] and in [11] was > 100 µM (inactive) in each case. For the same compound, the GI50 in [12], in test [13], in test [15], in test [16], in [17] and in test [18] was > 100 µM (inactive) throughout. In addition, the GI50 in test [19] was > 100 µM (inactive).
On to `CC(C)C1=CC23CCC4C(C)(C(=O)O)CCCC4(C)C2CC1C1C(=O)N(c2ccccc2N2C(=O)C4C5CC6C7(C)CCCC(C)(C(=O)O)C7CCC6(C=C5C(C)C)C4C2=O)C(=O)C13` (configuration not stated), for which the GI50 in test [2] was 4.01 µM (inactive); in test [3], 14.3 µM; in test [20], 6.38 µM (inactive); in test [4], 4.67 µM (inactive); in test [5] it was 17.9 µM (inactive); in test [6], 9.55 µM (inactive). Besides, the GI50 in test [8] was 3.63 µM (inactive); in [9], 2.47 µM (inactive); in test [10], 8.73 µM (inactive); in test [11], 18 µM (inactive); in test [12] it was 12.2 µM (inactive); in test [14], 7.89 µM (inactive). Moreover, the GI50 in [15] is 19.9 µM (inactive); in test [16] it was 13.1 µM (inactive); in test [17], 3.16 µM (inactive); in [19], 18.2 µM (inactive).

The values are drawn from ChEMBL document CHEMBL1201862, “PubChem BioAssay data set” (2004).
